{"source": "ChEMBL document CHEMBL5338827", "about": "“Evolution and Discovery of Matrine Derivatives as a New Class of Anti-Hepatic Fibrosis Agents Targeting Ewing Sarcoma Breakpoint Region 1 (EWSR1)” (J Med Chem, 2023)", "key": {"[1]": {"test_system": "LX-2", "assay": "Downregulation of CTGF mRNA level in human LX2 cells", "assay_type": "functional, cell-based"}, "[2]": {"test_system": "Mus musculus", "assay": "Anti-hepatic fibrosis activity in MDR2 knockout liver injury mouse model assessed as reduction in serum TBA level at 100 mg/kg, po administered once a day for 4 weeks (reference value: 59.04+/-22.38 micromol/L)", "assay_type": "functional"}, "[3]": {"test_system": "LX-2", "assay": "Anti-fibrosis effect in human LX2 cells assessed as reduction in TGFbeta1-induced COL1A1 mRNA expression at 10 to 20 uM measured for 24 hrs", "assay_type": "functional, cell-based", "details": "dose 10-20 µM"}, "[4]": {"test_system": "LX-2", "assay": "Anti-fibrosis effect in human LX2 cells assessed as reduction in TGFbeta1-induced MMP-2 protein expression at 10 to 20 uM measured for 24 hrs", "assay_type": "functional, cell-based", "details": "dose 10-20 µM"}, "[5]": {"test_system": "Rattus norvegicus", "assay": "Anti-hepatic fibrosis activity in bile duct ligation rat model assessed as reduction in ITGAV protein expression at 100 mg/kg, po administered for 14 days by Western blot analysis", "assay_type": "functional, organism-based", "details": "time 14.0 day"}, "[6]": {"test_system": "LX-2", "assay": "Anti-fibrosis effect in human LX2 cells assessed as reduction in TGFbeta1-induced COL1A1 protein expression at 10 to 20 uM measured for 24 hrs", "assay_type": "functional, cell-based", "details": "dose 10-20 µM"}, "[7]": {"test_system": "Mus musculus", "assay": "Anti-hepatic fibrosis activity in MDR2 knockout liver injury mouse model assessed as reduction in ACTA2 mRNA expression at 100 mg/kg, po administered once a day for 4 weeks by qRT-PCR analysis", "assay_type": "functional, organism-based"}, "[8]": {"test_system": "Mus musculus", "assay": "Anti-hepatic fibrosis activity in MDR2 knockout liver injury mouse model assessed as reduction in ALP level at 100 mg/kg, po administered once a day for 4 weeks (reference value: 386.80+/-179.56 U/L)", "assay_type": "functional"}, "[9]": {"test_system": "Rattus norvegicus", "assay": "Anti-hepatic fibrosis activity in bile duct ligation rat model assessed as reduction in ALT level at 100 mg/kg, po administered for 14 days", "assay_type": "functional", "details": "time 14 day"}, "[10]": {"test_system": "Rattus norvegicus", "assay": "Anti-hepatic fibrosis activity in bile duct ligation rat model assessed as reduction collagen accumulation at 100 mg/kg, po administered for 14 days", "assay_type": "functional, organism-based", "details": "time 14.0 day"}, "[11]": {"test_system": "LX-2", "assay": "Anti-hepatic fibrosis activity in human LX2 cells assessed as inhibition of TGF-beta1 induced MMP-2 mRNA expression at 20 uM incubated for 24 hrs by qRT-PCR analysis", "assay_type": "functional, cell-based"}, "[12]": {"test_system": "Rattus norvegicus", "assay": "Anti-hepatic fibrosis activity in bile duct ligation rat model assessed as reduction in bile duct proliferation at 100 mg/kg, po administered for 14 days", "assay_type": "functional, organism-based", "details": "time 14.0 day"}, "[13]": {"test_system": "Mus musculus", "assay": "Anti-hepatic fibrosis activity in MDR2 knockout liver injury mouse model assessed as reduction in CTGF protein expression at 100 mg/kg, po administered once a day for 4 weeks by Western blot analysis", "assay_type": "functional, organism-based"}, "[14]": {"test_system": "Rattus norvegicus", "assay": "Anti-hepatic fibrosis activity in bile duct ligation rat model assessed as reduction in LRAT positive cells in liver at 100 mg/kg, po administered for 14 days by Immunofluorescence analysis", "assay_type": "functional, organism-based", "details": "time 14.0 day"}, "[15]": {"test_system": "LX-2", "assay": "Anti-hepatic fibrosis activity in human LX2 cells assessed as inhibition of TGF-beta1 induced COL1A1 mRNA expression at 20 uM incubated for 24 hrs by qRT-PCR analysis", "assay_type": "functional, cell-based"}, "[16]": {"test_system": "LX-2", "assay": "Anti-hepatic fibrosis activity in human LX2 cells assessed as inhibition of TGF-beta1 induced CTGF mRNA expression at 20 uM incubated for 24 hrs by qRT-PCR analysis", "assay_type": "functional, cell-based"}, "[17]": {"test_system": "Rattus norvegicus", "assay": "Anti-hepatic fibrosis activity in bile duct ligation rat model assessed as reduction in TGFB1 mRNA expression at 100 mg/kg, po administered for 14 days by qRT-PCR analysis", "assay_type": "functional, organism-based", "details": "time 14.0 day"}, "[18]": {"test_system": "LX-2", "assay": "Anti-fibrosis effect in human LX2 cells assessed as reduction in TGFbeta1-induced integrin subunit alpha-V protein expression at 10 to 20 uM measured for 24 hrs", "assay_type": "functional, cell-based", "details": "dose 10-20 µM"}, "[19]": {"test_system": "Rattus norvegicus", "assay": "Anti-hepatic fibrosis activity in bile duct ligation rat model assessed as reduction in bile TBA level at 100 mg/kg, po administered for 14 days", "assay_type": "functional", "details": "time 14 day"}, "[20]": {"test_system": "Mus musculus", "assay": "Anti-hepatic fibrosis activity in MDR2 knockout liver injury mouse model assessed as reduction in TGFbeta1 protein expression at 100 mg/kg, po administered once a day for 4 weeks by Western blot analysis", "assay_type": "functional, organism-based"}, "[21]": {"test_system": "Mus musculus", "assay": "Anti-hepatic fibrosis activity in MDR2 knockout liver injury mouse model assessed as reduction in COL1A1 protein expression at 100 mg/kg, po administered once a day for 4 weeks by Western blot analysis", "assay_type": "functional, organism-based"}, "[22]": {"test_system": "LX-2", "assay": "Anti-fibrosis effect in human LX2 cells assessed as reduction in TGFbeta1-induced fibronectin mRNA expression at 10 to 20 uM measured for 24 hrs", "assay_type": "functional, cell-based", "details": "dose 10-20 µM"}, "[23]": {"test_system": "LX-2", "assay": "Anti-fibrosis effect in human LX2 cells assessed as reduction in TGFbeta1-induced MMP-2 mRNA expression at 10 to 20 uM measured for 24 hrs", "assay_type": "functional, cell-based", "details": "dose 10-20 µM"}, "[24]": {"biological_target": "Collagen alpha-1(I) chain (Homo sapiens, UniProt P02452)", "sequence (P02452 whole entry)": "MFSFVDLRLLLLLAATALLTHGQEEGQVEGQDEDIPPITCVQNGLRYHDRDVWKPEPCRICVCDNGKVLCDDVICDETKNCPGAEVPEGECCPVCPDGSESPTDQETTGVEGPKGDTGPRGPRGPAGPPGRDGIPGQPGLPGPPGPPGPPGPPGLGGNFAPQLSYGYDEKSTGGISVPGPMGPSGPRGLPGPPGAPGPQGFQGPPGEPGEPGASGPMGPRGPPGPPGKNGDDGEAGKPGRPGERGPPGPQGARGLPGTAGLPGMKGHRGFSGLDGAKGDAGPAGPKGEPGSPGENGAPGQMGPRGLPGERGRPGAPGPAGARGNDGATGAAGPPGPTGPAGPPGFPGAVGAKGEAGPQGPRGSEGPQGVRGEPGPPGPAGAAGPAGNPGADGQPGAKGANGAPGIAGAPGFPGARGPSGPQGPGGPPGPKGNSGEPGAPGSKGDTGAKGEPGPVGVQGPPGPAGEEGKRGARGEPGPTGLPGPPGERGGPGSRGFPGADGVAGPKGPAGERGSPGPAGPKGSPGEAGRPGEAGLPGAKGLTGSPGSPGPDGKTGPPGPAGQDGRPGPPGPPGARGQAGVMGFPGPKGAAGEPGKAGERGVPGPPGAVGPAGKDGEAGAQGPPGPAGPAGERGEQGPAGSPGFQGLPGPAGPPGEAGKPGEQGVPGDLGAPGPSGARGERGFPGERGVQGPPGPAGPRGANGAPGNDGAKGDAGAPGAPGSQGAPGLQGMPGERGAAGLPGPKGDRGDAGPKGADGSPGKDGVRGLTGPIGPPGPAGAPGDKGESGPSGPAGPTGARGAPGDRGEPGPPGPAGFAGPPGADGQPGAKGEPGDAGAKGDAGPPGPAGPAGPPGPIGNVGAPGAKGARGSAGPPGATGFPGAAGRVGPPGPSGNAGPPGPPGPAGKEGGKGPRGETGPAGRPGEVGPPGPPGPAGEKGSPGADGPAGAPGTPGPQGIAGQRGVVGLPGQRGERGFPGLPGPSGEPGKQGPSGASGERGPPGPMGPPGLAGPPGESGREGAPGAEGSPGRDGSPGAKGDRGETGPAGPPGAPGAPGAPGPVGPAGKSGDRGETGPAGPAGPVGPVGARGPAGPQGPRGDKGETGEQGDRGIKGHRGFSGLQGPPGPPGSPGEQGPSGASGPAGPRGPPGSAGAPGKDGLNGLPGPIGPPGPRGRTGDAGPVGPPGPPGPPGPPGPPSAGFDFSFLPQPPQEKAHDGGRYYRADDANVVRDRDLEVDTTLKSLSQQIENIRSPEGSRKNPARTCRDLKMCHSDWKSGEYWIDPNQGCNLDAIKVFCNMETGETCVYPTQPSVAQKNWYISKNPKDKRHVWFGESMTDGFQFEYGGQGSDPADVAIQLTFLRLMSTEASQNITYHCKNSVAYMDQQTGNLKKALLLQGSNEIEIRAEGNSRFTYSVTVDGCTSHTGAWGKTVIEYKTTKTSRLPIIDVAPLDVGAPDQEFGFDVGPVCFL", "assay": "Inhibition of COL1A1 (unknown origin) expressed in human LX2 cells at 40 uM measured for 24 hrs relative to control", "assay_type": "cell-based"}, "[25]": {"test_system": "Rattus norvegicus", "assay": "Anti-hepatic fibrosis activity in bile duct ligation rat model assessed as reduction in MMP2 mRNA expression at 100 mg/kg, po administered for 14 days by qRT-PCR analysis", "assay_type": "functional, organism-based", "details": "time 14.0 day"}, "[26]": {"test_system": "Rattus norvegicus", "assay": "Anti-hepatic fibrosis activity in bile duct ligation rat model assessed as reduction in serum TBA level at 100 mg/kg, po administered for 14 days", "assay_type": "functional", "details": "time 14 day"}, "[27]": {"biological_target": "T1, RNA-binding protein EWS (Homo sapiens) (UniProt Q01844)", "T1 sequence (whole entry)": "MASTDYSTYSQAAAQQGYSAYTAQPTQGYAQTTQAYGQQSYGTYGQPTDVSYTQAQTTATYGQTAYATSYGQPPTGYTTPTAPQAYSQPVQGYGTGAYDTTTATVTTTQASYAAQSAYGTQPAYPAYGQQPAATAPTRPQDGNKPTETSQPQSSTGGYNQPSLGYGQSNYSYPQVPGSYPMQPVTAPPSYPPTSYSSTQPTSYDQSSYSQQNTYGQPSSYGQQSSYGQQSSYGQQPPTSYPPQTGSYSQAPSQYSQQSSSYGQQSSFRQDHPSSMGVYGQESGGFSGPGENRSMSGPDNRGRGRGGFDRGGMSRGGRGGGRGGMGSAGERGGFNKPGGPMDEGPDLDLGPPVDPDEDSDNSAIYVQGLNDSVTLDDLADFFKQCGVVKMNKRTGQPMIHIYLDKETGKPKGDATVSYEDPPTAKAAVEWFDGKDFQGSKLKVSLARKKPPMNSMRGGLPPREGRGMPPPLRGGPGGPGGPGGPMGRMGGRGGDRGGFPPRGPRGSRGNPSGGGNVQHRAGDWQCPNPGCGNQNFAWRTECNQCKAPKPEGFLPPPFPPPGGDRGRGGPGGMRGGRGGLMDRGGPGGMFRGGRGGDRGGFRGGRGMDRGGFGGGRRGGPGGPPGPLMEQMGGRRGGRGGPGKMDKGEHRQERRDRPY", "assay": "Induction of EWSR1 degradation in human LX2 cells at 20 uM measured upto 32 hrs in presence of cycloheximide", "assay_type": "cell-based"}, "[28]": {"test_system": "LX-2", "assay": "Anti-hepatic fibrosis activity in human LX2 cells assessed as inhibition of TGFbeta1-induced MMP-2 protein expression at 20 uM incubated for 24 hrs by western blot analysis", "assay_type": "functional, cell-based"}, "[29]": {"test_system": "Mus musculus", "assay": "Anti-hepatic fibrosis activity in MDR2 knockout liver injury mouse model assessed as reduction in MMP2 protein expression at 100 mg/kg, po administered once a day for 4 weeks by Western blot analysis", "assay_type": "functional, organism-based"}}, "note": "The source made the active and inactive calls. The calls are words filed in the database; no cut-off is given here."}
{"molecule": "CCCC[C@@H]1[C@H]2CCCN3CCC[C@@H](CN1C(=O)Nc1c(CC)cccc1CC)[C@@H]23", "values": [{"measurement": "Activity", "setting": "[1]", "result": "Active"}, {"measurement": "Activity", "setting": "[2]", "result": 29.18, "unit": "µmol/L"}, {"measurement": "Activity", "setting": "[3]", "result": "Active"}, {"measurement": "Activity", "setting": "[4]", "result": "Active"}, {"measurement": "Activity", "setting": "[5]", "result": "Active"}, {"measurement": "Activity", "setting": "[6]", "result": "Active"}, {"measurement": "Activity", "setting": "[7]", "result": "Active"}, {"measurement": "Activity", "setting": "[8]", "result": 278.8, "unit": "U/L"}, {"measurement": "Activity", "setting": "[9]", "result": 60.67, "unit": "U/L"}, {"measurement": "Activity", "setting": "[10]", "result": "Active"}, {"measurement": "Activity", "setting": "[11]", "result": "Active"}, {"measurement": "Activity", "setting": "[12]", "result": "Active"}, {"measurement": "Activity", "setting": "[13]", "result": "Active"}, {"measurement": "Activity", "setting": "[14]", "result": "Active"}, {"measurement": "Activity", "setting": "[15]", "result": "Active"}, {"measurement": "Activity", "setting": "[16]", "result": "Active"}, {"measurement": "Activity", "setting": "[17]", "result": "Active"}, {"measurement": "Activity", "setting": "[18]", "result": "Active"}, {"measurement": "Activity", "setting": "[19]", "result": 433.11, "unit": "µmol/L"}, {"measurement": "Activity", "setting": "[20]", "result": "Active"}, {"measurement": "Activity", "setting": "[21]", "result": "Active"}, {"measurement": "Activity", "setting": "[22]", "result": "Active"}, {"measurement": "Activity", "setting": "[23]", "result": "Active"}, {"measurement": "inhibition", "setting": "[24]", "result": 98.8, "unit": "%"}, {"measurement": "Activity", "setting": "[25]", "result": "Active"}, {"measurement": "Activity", "setting": "[26]", "result": 173, "unit": "µmol/L"}, {"measurement": "Activity", "setting": "[27]", "result": "inactive"}, {"measurement": "Activity", "setting": "[28]", "result": "Active"}, {"measurement": "Activity", "setting": "[29]", "result": "Active"}]}
